Consider 24 molecules from patent publication US9926281B2 (priority 2014, dated 2018).

One assay addresses rnADAMTS-5 (1-564-6H) (Rattus norvegicus, UniProt Q6TY19). The settings on record: read-out: Rat ADAMTS-5 potency IC50.
Assay [1] has as its target T1, human ADAMTS-5 (Homo sapiens (Human), UniProt Q9UNA0). The settings on record: read-out: hADAMTS-5 potency IC50.
A further assay addresses human TACE (Homo sapiens (Human), UniProt P78536). The conditions noted are these: read-out: TACE potency IC50.
Another assay has as its target human MMP13 (Homo sapiens (Human), UniProt P45452). The settings on record: read-out: hMMP-13 potency IC50.
The target of assay [2] is T1, human ADAMTS-5. The settings on record: read-out: hADAMTS-5 potency IC50. This is another data set of the same source.
Experimental: Finally, the fluorescence is read on the Envision (Perkin Elmer) after an incubation of 90 min at 37° C.
In the next assay the target is human MMP14 (Homo sapiens (Human), UniProt P50281). The settings on record: read-out: hMMP-14 potency IC50.

Like-named read-outs stand apart in the source and are kept apart here. Some results are limits rather than exact numbers.

Chain of human TACE (P78536 whole entry, looked up, change not shown): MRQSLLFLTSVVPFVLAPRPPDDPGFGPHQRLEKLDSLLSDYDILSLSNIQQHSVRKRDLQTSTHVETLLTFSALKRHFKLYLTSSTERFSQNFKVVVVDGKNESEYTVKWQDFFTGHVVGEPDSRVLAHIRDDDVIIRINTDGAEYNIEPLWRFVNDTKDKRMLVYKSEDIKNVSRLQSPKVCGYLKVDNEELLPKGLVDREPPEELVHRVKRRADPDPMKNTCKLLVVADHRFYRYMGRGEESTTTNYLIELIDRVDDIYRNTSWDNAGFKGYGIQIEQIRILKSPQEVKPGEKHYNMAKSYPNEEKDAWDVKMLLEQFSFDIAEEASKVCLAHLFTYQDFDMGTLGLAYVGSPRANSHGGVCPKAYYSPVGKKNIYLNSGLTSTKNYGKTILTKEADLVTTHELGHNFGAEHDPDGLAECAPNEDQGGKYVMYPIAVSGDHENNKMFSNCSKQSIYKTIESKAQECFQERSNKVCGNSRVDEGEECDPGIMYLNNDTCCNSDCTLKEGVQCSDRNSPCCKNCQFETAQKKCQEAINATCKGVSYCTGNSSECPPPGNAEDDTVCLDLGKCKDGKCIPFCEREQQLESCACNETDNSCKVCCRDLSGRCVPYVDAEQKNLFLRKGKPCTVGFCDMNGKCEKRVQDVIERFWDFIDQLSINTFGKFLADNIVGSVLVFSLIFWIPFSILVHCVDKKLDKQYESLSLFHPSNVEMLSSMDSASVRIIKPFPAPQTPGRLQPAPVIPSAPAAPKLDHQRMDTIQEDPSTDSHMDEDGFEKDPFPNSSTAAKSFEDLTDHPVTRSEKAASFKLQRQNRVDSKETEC
T1 sequence (Q9UNA0 262-930): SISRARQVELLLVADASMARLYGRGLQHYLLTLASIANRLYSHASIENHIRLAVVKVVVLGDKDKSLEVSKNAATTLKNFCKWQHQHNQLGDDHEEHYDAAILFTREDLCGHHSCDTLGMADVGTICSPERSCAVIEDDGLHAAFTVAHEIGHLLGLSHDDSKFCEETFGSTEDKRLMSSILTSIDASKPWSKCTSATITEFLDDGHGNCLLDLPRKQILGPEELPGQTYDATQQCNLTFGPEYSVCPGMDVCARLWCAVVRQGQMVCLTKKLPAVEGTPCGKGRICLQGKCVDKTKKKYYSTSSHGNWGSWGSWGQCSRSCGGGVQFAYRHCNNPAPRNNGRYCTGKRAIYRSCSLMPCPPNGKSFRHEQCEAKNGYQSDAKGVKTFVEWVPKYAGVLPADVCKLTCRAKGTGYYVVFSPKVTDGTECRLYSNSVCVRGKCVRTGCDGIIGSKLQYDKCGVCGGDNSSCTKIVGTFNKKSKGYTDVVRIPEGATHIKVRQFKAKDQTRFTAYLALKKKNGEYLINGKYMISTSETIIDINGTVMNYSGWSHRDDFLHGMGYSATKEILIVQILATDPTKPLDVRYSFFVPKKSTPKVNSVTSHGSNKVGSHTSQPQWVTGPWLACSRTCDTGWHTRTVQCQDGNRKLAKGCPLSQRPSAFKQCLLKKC
Experimental for human MMP13: Human MMP13 is preactivated by incubated the enzyme in the same buffer complemented with 1 mM freshly prepared p-Aminophenylmercuric acetate (AMPA) for 1 hour at 37° C.

Usually IC50 stands for the midpoint of a concentration-inhibition curve. Consider `Cc1c(F)cccc1N1CCN(C(=O)CCC2(c3cccnc3)NC(=O)NC2=O)CC1` (stereo not shown) [compound 97, 5-[3-[4-(3-fluoro-2-methyl-phenyl)piperazin-1-yl]-3-oxo-propyl]-5-(3-pyridyl)imidazolidine-2,4-dione], for which the IC50 at rnADAMTS-5 (1-564-6H) was 0.148 µM; on human ADAMTS-5 [1] it was 0.168 µM; at human TACE, > 4 µM; on human MMP13, > 20 µM.
In the case of `Cc1c(F)cccc1N1CCN(C(=O)CCC2(c3ccccn3)NC(=O)NC2=O)CC1` (stereo not shown) [compound 100, 5-[3-[4-(3-fluoro-2-methyl-phenyl)piperazin-1-yl]-3-oxo-propyl]-5-(2-pyridyl)imidazolidine-2,4-dione], the IC50 on rnADAMTS-5 (1-564-6H) is 0.163 µM; at human ADAMTS-5 [1], 0.185 µM; on human TACE, > 4 µM; on human MMP13, > 20 µM.
As to `O=C1NC(=O)C(CCC(=O)N2CCN(c3cccc(F)c3)CC2)(c2ccccn2)N1` (stereo not shown) [compound 103, 5-[3-[4-(3-fluorophenyl)piperazin-1-yl]-3-oxo-propyl]-5-(2-pyridyl)imidazolidine-2,4-dione], the IC50 on rnADAMTS-5 (1-564-6H) amounted to 0.024 µM; on human ADAMTS-5 [1], 0.028 µM; at human TACE, 4.1 µM; at human MMP13, 2 µM.
As for `Cc1ccc(F)cc1N1CCN(C(=O)CCC2(c3ccccn3)NC(=O)NC2=O)CC1` (stereo not shown) [compound 104, 5-[3-[4-(5-fluoro-2-methyl-phenyl)piperazin-1-yl]-3-oxo-propyl]-5-(2-pyridyl)imidazolidine-2,4-dione], the IC50 is 0.041 µM on rnADAMTS-5 (1-564-6H), 0.043 µM at human ADAMTS-5 [1], 0.461 µM on human TACE and > 20 µM at human MMP13.
In the case of `CC1CN(C(=O)CCC2(c3cccnc3)NC(=O)NC2=O)CCN1c1ccccc1` (stereo not shown) [compound 105, 5-[3-(3-methyl-4-phenyl-piperazin-1-yl)-3-oxo-propyl]-5-(3-pyridyl)imidazolidine-2,4-dione], the IC50 on rnADAMTS-5 (1-564-6H) was 0.162 µM; on human ADAMTS-5 [1], 0.226 µM; on human TACE, > 20 µM; at human MMP13, > 20 µM.
On to `CC1CN(C(=O)CCC2(C3CC3)NC(=O)NC2=O)CCN1c1ccccc1` (stereo not shown) [compound 106, 5-cyclopropyl-5-[3-(3-methyl-4-phenyl-piperazin-1-yl)-3-oxo-propyl]imidazolidine-2,4-dione], for which the IC50 at rnADAMTS-5 (1-564-6H) is 0.222 µM; on human ADAMTS-5 [1], 0.233 µM; at human TACE, > 20 µM; at human MMP13 it was > 20 µM.
As for `CC(C)(C)C1(CCC(=O)N2CCN(c3cccc(Cl)c3)CC2)NC(=O)NC1=O` (stereo not shown) [compound 107, 5-tert-butyl-5-[3-[4-(3-chlorophenyl)piperazin-1-yl]-3-oxo-propyl]imidazolidine-2,4-dione], the IC50 on rnADAMTS-5 (1-564-6H) was 0.147 µM; at human ADAMTS-5 [1] it was 0.172 µM; on human TACE it was > 4 µM; on human MMP13, > 20 µM.
Regarding `O=C1NC(=O)C(CCC(=O)N2CCN(c3cccc(Cl)c3)CC2)(C2CCCC2)N1` (stereo not shown) [compound 109, 5-[3-[4-(3-chlorophenyl)piperazin-1-yl]-3-oxo-propyl]-5-cyclopentyl-imidazolidine-2,4-dione], the IC50 at rnADAMTS-5 (1-564-6H) is 0.182 µM; at human ADAMTS-5 [1], 0.261 µM; at human TACE, 5.26 µM; on human MMP13, > 4 µM.
`O=C1NC(=O)C(CCC(=O)N2CCN(c3cc(Cl)cc(Cl)c3)CC2)(c2cccnc2)N1` (stereo not shown) [compound 111, 5-[3-[4-(3,5-dichlorophenyl)piperazin-1-yl]-3-oxo-propyl]-5-(3-pyridyl)imidazolidine-2,4-dione]: the IC50 at rnADAMTS-5 (1-564-6H) was 0.046 µM; on human ADAMTS-5 [1] it was 0.042 µM; at human TACE, 0.963 µM; on human MMP13, > 20 µM.
Take `O=C1NC(=O)C(CCC(=O)N2CCN(c3ccc(F)c(F)c3)CC2)(C2CC2)N1` (stereo not shown) [compound 113, 5-cyclopropyl-5-[3-[4-(3,4-difluorophenyl)piperazin-1-yl]-3-oxo-propyl]imidazolidine-2,4-dione]: the IC50 was 0.091 µM on rnADAMTS-5 (1-564-6H), 0.104 µM at human ADAMTS-5 [1], > 20 µM at human TACE and 3.62 µM on human MMP13.
Regarding `O=C1NC(=O)C(CCC(=O)N2CCN(c3ccc(F)c(Cl)c3)CC2)(C2CC2)N1` (stereo not shown) [compound 114, 5-[3-[4-(3-chloro-4-fluoro-phenyl)piperazin-1-yl]-3-oxo-propyl]-5-cyclopropyl-imidazolidine-2,4-dione], the IC50 is 0.062 µM on rnADAMTS-5 (1-564-6H), 0.067 µM on human ADAMTS-5 [1], > 20 µM at human TACE and 2.58 µM at human MMP13.
In the case of `CC(CC1(C2CC2)NC(=O)NC1=O)C(=O)N1CCN(c2cccc(Cl)c2)CC1` (stereo not shown) [compound 121, 5-[3-[4-(3-chlorophenyl)piperazin-1-yl]-2-methyl-3-oxo-propyl]-5-cyclopropyl-imidazolidine-2,4-dione], the IC50 at rnADAMTS-5 (1-564-6H) turned out to be 0.024 µM; at human ADAMTS-5 [1], 0.015 µM; on human ADAMTS-5 [2] it was 0.015 µM; at human TACE, 1.1 µM; on human MMP13, 0.0706 µM.
On to `C[C@H]1CN(C(=O)CCC2(c3ccccc3)NC(=O)NC2=O)CCN1c1ccccc1` (stereo partly drawn) [compound 137, 5-[3-[(3S)-3-methyl-4-phenyl-piperazin-1-yl]-3-oxo-propyl]-5-phenyl-imidazolidine-2,4-dione], for which the IC50 is 0.249 µM on rnADAMTS-5 (1-564-6H), 0.24 µM at human ADAMTS-5 [1], > 20 µM on human TACE and > 20 µM at human MMP13.
In the case of `O=C1NC(=O)C(CCC(=O)N2CCN(c3ccccc3)CC2)(C2CC2)N1` (stereo not shown) [compound 138, 5-cyclopropyl-5-[3-oxo-3-(4-phenylpiperazin-1-yl)propyl]imidazolidine-2,4-dione], the IC50 at rnADAMTS-5 (1-564-6H) is 0.107 µM; at human ADAMTS-5 [1] it was 0.101 µM; on human TACE it was > 20 µM; at human MMP13, > 4 µM.
On to `COCC1(CC(C)C(=O)N2CCN(c3cc(Cl)cc(Cl)c3C)[C@@H](C)C2)NC(=O)NC1=O` (stereo partly drawn) [compound 227, 5-[3-[(3S)-4-(3,5-dichloro-2-methyl-phenyl)-3-methyl-piperazin-1-yl]-2-methyl-3-oxo-propyl]-5-(methoxymethyl)imidazolidine-2,4-dione], for which the IC50 on human MMP14 was > 20 µM.
As to `CC(CC1NC(=O)NC1=O)C(=O)N1CCN(c2ccc(F)c(F)c2)[C@@H](C)C1` (stereo partly drawn) [compound 251, 5-[3-[(3S)-4-(3,4-difluorophenyl)-3-methyl-piperazin-1-yl]-2-methyl-3-oxo-propyl]imidazolidine-2,4-dione], the results for the IC50 on human ADAMTS-5 [2], on human TACE and on human MMP14 were 0.094 µM, > 12 µM and > 4 µM, respectively.
As to `C[C@H]1CN(C(=O)CCC2(C3CC3)NC(=O)NC2=O)CCN1c1cccnc1` (stereo partly drawn) [compound 259, 5-cyclopropyl-5-[3-[(3S)-3-methyl-4-(3-pyridyl)piperazin-1-yl]-3-oxo-propyl]imidazolidine-2,4-dione], the IC50 was 0.224 µM on human ADAMTS-5 [2], > 20 µM at human TACE and > 20 µM at human MMP14.
In the case of `C[C@H]1CN(C(=O)CCC2(C3CC3)NC(=O)NC2=O)CCN1c1cncc(Cl)c1` (stereo partly drawn) [compound 260, 5-[3-[(3S)-4-(5-chloro-3-pyridyl)-3-methyl-piperazin-1-yl]-3-oxo-propyl]-5-cyclopropyl-imidazolidine-2,4-dione], the IC50 on human ADAMTS-5 [2] was 0.126 µM; at human TACE, > 20 µM; on human MMP14, > 20 µM.
As to `C[C@H]1CN(C(=O)CCC2(C3CC3)NC(=O)NC2=O)CCN1c1cncc(F)c1` (stereo partly drawn) [compound 261, 5-cyclopropyl-5-[3-[(3S)-4-(5-fluoro-3-pyridyl)-3-methyl-piperazin-1-yl]-3-oxo-propyl]imidazolidine-2,4-dione], the IC50 is 0.165 µM at human ADAMTS-5 [2], > 20 µM on human TACE and > 20 µM on human MMP14.
Consider `C[C@H]1CN(C(=O)CCC2(C3CC3)NC(=O)NC2=O)CCN1c1cccc(Br)c1` (stereo partly drawn) [compound 270, 5-[3-[(3S)-4-(3-bromophenyl)-3-methyl-piperazin-1-yl]-3-oxo-propyl]-5-cyclopropyl-imidazolidine-2,4-dione], for which the IC50 at human ADAMTS-5 [2] is 0.076 µM; at human TACE, > 4 µM; at human MMP14, > 4 µM.
For `CC(CC1(C)NC(=O)NC1=O)C(=O)N1CCN(c2cncc(Cl)c2)[C@@H](C)C1` (stereo partly drawn) [compound 276, 5-[3-[(3S)-4-(5-chloro-3-pyridyl)-3-methyl-piperazin-1-yl]-2-methyl-3-oxo-propyl]-5-methyl-imidazolidine-2,4-dione], the IC50 at human ADAMTS-5 [2] is 0.115 µM; at human TACE, > 4 µM; at human MMP14 it was > 20 µM.
On the same counts, the results for `CC(CC1(C)NC(=O)NC1=O)C(=O)N1CCN(c2cncc(F)c2)[C@@H](C)C1` (stereo partly drawn) [compound 277, 5-[3-[(3S)-4-(5-fluoro-3-pyridyl)-3-methyl-piperazin-1-yl]-2-methyl-3-oxo-propyl]-5-methyl-imidazolidine-2,4-dione] are 0.152 µM, > 4 µM and > 20 µM.
As to `C[C@H]1CN(C(=O)CCC2(C3CC3)NC(=O)NC2=O)CCN1c1cccc(-c2cn[nH]c2)c1` (stereo partly drawn) [compound 282, 5-cyclopropyl-5-[3-[(3S)-3-methyl-4-[3-(1H-pyrazol-4-yl)phenyl]piperazin-1-yl]-3-oxo-propyl]imidazolidine-2,4-dione], the values for the IC50 on human ADAMTS-5 [2], at human TACE and on human MMP14 were 0.11 µM, > 20 µM and > 20 µM, respectively.
As for `Cc1ccc(C2(CCC(=O)N3CCN(c4ccc(F)c(Cl)c4)[C@@H](C)C3)NC(=O)NC2=O)cn1` (stereo partly drawn) [compound 287, 5-[3-[(3S)-4-(3-chloro-4-fluoro-phenyl)-3-methyl-piperazin-1-yl]-3-oxo-propyl]-5-(6-methyl-3-pyridyl)imidazolidine-2,4-dione], the results for the IC50 at human ADAMTS-5 [2], on human TACE and at human MMP14 were 0.052 µM, > 4 µM and > 4 µM, respectively.
